Reference: the NIST ThermoML archive (doi:10.1021/acs.jced.5b00770)
± gives the expanded uncertainty stated by the source.

Settings: Crystal; visual observation

Normal melting temperature: 276.50 ± 0.9 °C
SMILES: [Cl-].c1ccc([P+](c2ccccc2)(c2ccccc2)c2ccccc2)cc1 [tetraphenylphosphonium chloride]
